This is an account of results in patent US20230277603A1, “VEILLONELLA PARVULA STRAIN AS AN ORAL THERAPY FOR NEUROINFLAMMATORY DISEASES” (Evelo Biosciences, Inc., priority 2020, published 2023).

For the test, the system named is relapse-remitting EAE model induced with PLP139-151 peptide in SJL mice. The test is described as follows: SJL EAE model, therapeutic treatment (Example 3), clinical results. The format is in vivo. Conditions: for MMS ± SD: Day 0-42; for MMS ± SD / Incidence of relapse (%) / MMS of relapse period ± SD (Days 18-42) / End % body weight ± SD / End score ± SD: PO QD day ~11 - day 42; for MMS until Day 17 ± SD: acute phase, PO QD from day ~11; for End % body weight ± SD / End score ± SD: end of study. As to the method:
The SJL EAE model is a Th17/Th1-mediated mouse model of relapsing-remitting neuroinflammatory disease that is induced via immunization with proteolipid protein (PLP), a major protein constituent of CNS myelin. Disease pathology is due to infiltration of immune cells in the CNS leading to decreased motor function and paralysis. Briefly, in this model mice are injected subcutaneously with an emulsion of PLP-peptide plus CFA and intraperitoneally with pertussis toxin on day 0. Acute neuroinflammatory disease develops between day 10 to day 16, and the relapsing-remitting disease phase occurs from day 20 to day 45. Mice are dosed daily from the day of sensitization through the end of the study by oral gavage. In a therapeutic model, dosing of the mice begins on the second day of disease (~ Day 11 after disease induction). Mice are scored daily for a decrease in motor function and complete paralysis in the tail and limbs. Histopathology is carried out to score the frequency of inflammatory infiltrates and demyelination in the spinal cord.
The model details and read-outs, and methods are described below. Treatment began two days after disease onset, around day ~11 (mice were enrolled on the second day of disease for each mouse).
Experimental Autoimmune Encephalomyelitis. Female SJL mice (8-10 weeks old) were subcutaneously injected at four sites with myelin proteolipid protein (PLP) 139-151 in CFA emulsion (0.05 mL/injection site; ~0.5 mg PLP PLP139-151/mL; Hooke Laboratories; EK-2120). Following immunization, EAE induction was completed by intraperitoneal injections of pertussis toxin (6 µg/mL; 0.1 mL/mouse) within 2 hours of immunization. Mice were randomized into groups and monitored for EAE clinical score over the course of 42 days. Disease progression was scored blinded of treatment or prior measurements. Disease severity was scored using standard EAE criteria: 0 (normal); 1 (loss of tail tone); 2 (hind limb weakness); 3 (hind limb paralysis); 4 (hind limb paralysis and forelimb paralysis or weakness); 5 (morbidity/death). Mice were observed daily for clinical symptoms.
• Vehicle (anaerobic sucrose buffer) PO QD day ~11 - day 42 • G.I. Strain A 10 mg/dose PO QD day ~11 - day 42 • Fingolimod, 1 mg/kg PO QD day ~11 - day 42 • Fingolimod, 0.1 mg/kg PO QD day ~11 - day 42
G.I. Strain A was prepared as a lyophilized powder and was gamma irradiated prior to use.

The mark [1] stands for this setting: Strain A 10 mg/dose, Fingolimod 1 mg/kg.

On to `CCCCCCCCc1ccc(CCC(N)(CO)CO)cc1` [Fingolimod], for which, for the setting “Fingolimod 0.1 mg/kg”, the “MMS ± SD” value turned out to be 3.20±0.70, the “Incidence of relapse (%)” value is reported as 28.6%, the “MMS of relapse period ± SD (Days 18-42)” value is 1.77±1.53 and the “MMS until Day 17 ± SD” value is 3.13 ± 0.69. For the setting “Fingolimod 0.1 mg/kg”, the “End % body weight ± SD” value is 95.2±11.1% and the “End score ± SD” value came to 0.97±1.45. In addition, under setting [1], the “MMS ± SD” value worked out at 3.13±0.52, the “Incidence of relapse (%)” value is recorded as 0%, the “MMS of relapse period ± SD (Days 18-42)” value was 0.83±0.67 and the “MMS until Day 17 ± SD” value is recorded as 3.13±0.52. Moreover, under setting [1], the “End % body weight ± SD” value came to 101.8±12.0% and the “End score ± SD” value is given as 0.10±0.21.
